Laboratory results reported in the NIST ThermoML archive (doi:10.1016/j.jct.2012.05.012).
Numbers after ± are expanded uncertainties.

What was measured:
[1] = refractive index (Na D-line) (dimensionless); wn = mass fraction of the nth substance listed; settings: 101 kPa, Liquid, Standard Abbe refractometry
[2] = wn = mass fraction of the nth substance listed; settings: for surface tension liquid-gas: Maximal bubble pressure; for mass density: 101 kPa, Liquid, Vibrating tube method

CCCCn1cc[n+](C)c1.NCC(=O)[O-] [1-butyl-3-methylimidazolium glycinate] + O
Settings	mass density [kg/m3]	refractive index	surface tension liquid-gas [mN/m]
[1], 293.15 K, w2 = 0.0081	–	1.4993 ± 0.0005	–
[1], 293.15 K, w2 = 0.0102	–	1.4968 ± 0.0005	–
[1], 293.15 K, w2 = 0.0121	–	1.4944 ± 0.0005	–
[1], 293.15 K, w2 = 0.014	–	1.4918 ± 0.0005	–
[1], 293.15 K, w2 = 0.0161	–	1.4896 ± 0.0006	–
[1], 298.15 K, w2 = 0.0081	–	1.4982 ± 0.0005	–
[1], 298.15 K, w2 = 0.0102	–	1.4954 ± 0.0005	–
[1], 298.15 K, w2 = 0.0121	–	1.4928 ± 0.0005	–
[1], 298.15 K, w2 = 0.014	–	1.4907 ± 0.0005	–
[1], 298.15 K, w2 = 0.0161	–	1.4879 ± 0.0005	–
[1], 303.15 K, w2 = 0.0081	–	1.497 ± 0.0005	–
[1], 303.15 K, w2 = 0.0102	–	1.4941 ± 0.0005	–
[1], 303.15 K, w2 = 0.0121	–	1.4916 ± 0.0005	–
[1], 303.15 K, w2 = 0.014	–	1.4895 ± 0.0005	–
[1], 303.15 K, w2 = 0.0161	–	1.4869 ± 0.0005	–
[1], 308.15 K, w2 = 0.0081	–	1.4955 ± 0.0005	–
[1], 308.15 K, w2 = 0.0102	–	1.4927 ± 0.0005	–
[1], 308.15 K, w2 = 0.0121	–	1.4907 ± 0.0005	–
[1], 308.15 K, w2 = 0.014	–	1.4884 ± 0.0005	–
[1], 308.15 K, w2 = 0.0161	–	1.4858 ± 0.0005	–
[1], 313.15 K, w2 = 0.0081	–	1.4943 ± 0.0005	–
[1], 313.15 K, w2 = 0.0102	–	1.4915 ± 0.0005	–
[1], 313.15 K, w2 = 0.0121	–	1.4893 ± 0.0005	–
[1], 313.15 K, w2 = 0.014	–	1.4872 ± 0.0005	–
[1], 313.15 K, w2 = 0.0161	–	1.4845 ± 0.0005	–
[1], 318.15 K, w2 = 0.0081	–	1.4931 ± 0.0005	–
[1], 318.15 K, w2 = 0.0102	–	1.4904 ± 0.0005	–
[1], 318.15 K, w2 = 0.0121	–	1.4879 ± 0.0005	–
[1], 318.15 K, w2 = 0.014	–	1.4855 ± 0.0006	–
[1], 318.15 K, w2 = 0.0161	–	1.4832 ± 0.0005	–
[1], 323.15 K, w2 = 0.0081	–	1.4917 ± 0.0005	–
[1], 323.15 K, w2 = 0.0102	–	1.4888 ± 0.0005	–
[1], 323.15 K, w2 = 0.0121	–	1.4864 ± 0.0005	–
[1], 323.15 K, w2 = 0.014	–	1.4838 ± 0.0005	–
[1], 323.15 K, w2 = 0.0161	–	1.4814 ± 0.0006	–
[2], 283.15 K, w2 = 0.0081	1121.2 ± 8	–	45.7 ± 0.4
[2], 283.15 K, w2 = 0.0091	–	–	45.9 ± 0.4
[2], 283.15 K, w2 = 0.0102	–	–	46.1 ± 0.4
[2], 283.15 K, w2 = 0.0118	–	–	46.3 ± 0.4
[2], 283.15 K, w2 = 0.0129	1121.5 ± 8	–	–
[2], 283.15 K, w2 = 0.0131	–	–	46.6 ± 0.4
[2], 283.15 K, w2 = 0.018	1121.8 ± 8	–	–
[2], 283.15 K, w2 = 0.0234	1122.2 ± 8	–	–
[2], 283.15 K, w2 = 0.0293	1122.6 ± 8	–	–
[2], 288.15 K, w2 = 0.0081	1118 ± 8	–	45.5 ± 0.4
[2], 288.15 K, w2 = 0.0091	–	–	45.7 ± 0.4
[2], 288.15 K, w2 = 0.0102	–	–	45.9 ± 0.4
[2], 288.15 K, w2 = 0.0118	–	–	46.2 ± 0.4
[2], 288.15 K, w2 = 0.0129	1118.3 ± 8	–	–
[2], 288.15 K, w2 = 0.0131	–	–	46.4 ± 0.4
[2], 288.15 K, w2 = 0.018	1118.7 ± 8	–	–
[2], 288.15 K, w2 = 0.0234	1119.1 ± 8	–	–
[2], 288.15 K, w2 = 0.0293	1119.5 ± 8	–	–
[2], 293.15 K, w2 = 0.0081	1114.8 ± 8	–	45.3 ± 0.4
[2], 293.15 K, w2 = 0.0091	–	–	45.5 ± 0.4
[2], 293.15 K, w2 = 0.0102	–	–	45.7 ± 0.4
[2], 293.15 K, w2 = 0.0118	–	–	46 ± 0.4
[2], 293.15 K, w2 = 0.0129	1115.1 ± 8	–	–
[2], 293.15 K, w2 = 0.0131	–	–	46.2 ± 0.4
[2], 293.15 K, w2 = 0.018	1115.5 ± 8	–	–
[2], 293.15 K, w2 = 0.0234	1115.9 ± 8	–	–
[2], 293.15 K, w2 = 0.0293	1116.3 ± 8	–	–
[2], 298.15 K, w2 = 0.0081	1111.5 ± 8	–	45 ± 0.4
[2], 298.15 K, w2 = 0.0091	–	–	45.2 ± 0.4
[2], 298.15 K, w2 = 0.0102	–	–	45.4 ± 0.4
[2], 298.15 K, w2 = 0.0118	–	–	45.7 ± 0.4
[2], 298.15 K, w2 = 0.0129	1111.9 ± 8	–	–
[2], 298.15 K, w2 = 0.0131	–	–	45.9 ± 0.4
[2], 298.15 K, w2 = 0.018	1112.3 ± 8	–	–
[2], 298.15 K, w2 = 0.0234	1112.7 ± 8	–	–
[2], 298.15 K, w2 = 0.0293	1113.1 ± 8	–	–
[2], 303.15 K, w2 = 0.0081	1108.4 ± 8	–	44.8 ± 0.4
[2], 303.15 K, w2 = 0.0091	–	–	45 ± 0.4
[2], 303.15 K, w2 = 0.0102	–	–	45.2 ± 0.4
[2], 303.15 K, w2 = 0.0118	–	–	45.5 ± 0.4
[2], 303.15 K, w2 = 0.0129	1108.9 ± 8	–	–
[2], 303.15 K, w2 = 0.0131	–	–	45.8 ± 0.4
[2], 303.15 K, w2 = 0.018	1109.3 ± 8	–	–
[2], 303.15 K, w2 = 0.0234	1109.7 ± 8	–	–
[2], 303.15 K, w2 = 0.0293	1110.2 ± 8	–	–
[2], 308.15 K, w2 = 0.0081	1105.4 ± 8	–	44.5 ± 0.4
[2], 308.15 K, w2 = 0.0091	–	–	44.7 ± 0.4
[2], 308.15 K, w2 = 0.0102	–	–	44.9 ± 0.4
[2], 308.15 K, w2 = 0.0118	–	–	45.2 ± 0.4
[2], 308.15 K, w2 = 0.0129	1105.7 ± 8	–	–
[2], 308.15 K, w2 = 0.0131	–	–	45.5 ± 0.4
[2], 308.15 K, w2 = 0.018	1106.2 ± 8	–	–
[2], 308.15 K, w2 = 0.0234	1106.6 ± 8	–	–
[2], 308.15 K, w2 = 0.0293	1107.1 ± 8	–	–
[2], 313.15 K, w2 = 0.0081	1102.2 ± 8	–	44.2 ± 0.4
[2], 313.15 K, w2 = 0.0091	–	–	44.4 ± 0.4
[2], 313.15 K, w2 = 0.0102	–	–	44.6 ± 0.4
[2], 313.15 K, w2 = 0.0118	–	–	44.9 ± 0.4
[2], 313.15 K, w2 = 0.0129	1102.6 ± 8	–	–
[2], 313.15 K, w2 = 0.0131	–	–	45.2 ± 0.4
[2], 313.15 K, w2 = 0.018	1103 ± 8	–	–
[2], 313.15 K, w2 = 0.0234	1103.4 ± 8	–	–
[2], 313.15 K, w2 = 0.0293	1103.9 ± 8	–	–
[2], 318.15 K, w2 = 0.0081	1099.2 ± 8	–	43.7 ± 0.4
[2], 318.15 K, w2 = 0.0091	–	–	43.9 ± 0.4
[2], 318.15 K, w2 = 0.0102	–	–	44.1 ± 0.4
[2], 318.15 K, w2 = 0.0118	–	–	44.4 ± 0.4
[2], 318.15 K, w2 = 0.0129	1099.5 ± 8	–	–
[2], 318.15 K, w2 = 0.0131	–	–	44.6 ± 0.4
[2], 318.15 K, w2 = 0.018	1099.9 ± 8	–	–
[2], 318.15 K, w2 = 0.0234	1100.3 ± 8	–	–
[2], 318.15 K, w2 = 0.0293	1100.7 ± 8	–	–
[2], 323.15 K, w2 = 0.0081	1096.1 ± 8	–	43.3 ± 0.4
[2], 323.15 K, w2 = 0.0091	–	–	43.5 ± 0.4
[2], 323.15 K, w2 = 0.0102	–	–	43.7 ± 0.4
[2], 323.15 K, w2 = 0.0118	–	–	44 ± 0.4
[2], 323.15 K, w2 = 0.0129	1096.4 ± 8	–	–
[2], 323.15 K, w2 = 0.0131	–	–	44.2 ± 0.4
[2], 323.15 K, w2 = 0.018	1096.8 ± 8	–	–
[2], 323.15 K, w2 = 0.0234	1097.2 ± 8	–	–
[2], 323.15 K, w2 = 0.0293	1097.6 ± 8	–	–
[2], 328.15 K, w2 = 0.0081	1092.9 ± 8	–	42.9 ± 0.4
[2], 328.15 K, w2 = 0.0091	–	–	43.1 ± 0.4
[2], 328.15 K, w2 = 0.0102	–	–	43.3 ± 0.4
[2], 328.15 K, w2 = 0.0118	–	–	43.5 ± 0.4
[2], 328.15 K, w2 = 0.0129	1093.2 ± 8	–	–
[2], 328.15 K, w2 = 0.0131	–	–	43.8 ± 0.4
[2], 328.15 K, w2 = 0.018	1093.6 ± 8	–	–
[2], 328.15 K, w2 = 0.0234	1094 ± 8	–	–
[2], 328.15 K, w2 = 0.0293	1094.4 ± 8	–	–
